The results in this text go back to US9422238B2, “ICMT inhibitors” (National University of Singapore, priority 2012, dated 2016).

Values after ≈ are worked out from the molar mass of the structure shown. Where two headings read alike, the source gives them in different places.

Data set [1] can be described thus: physchem. Conditions: for solubility at 24 h: 25 °C; for solubility at 24 h / solubility at 3 h: pH 7.4, aqueous buffer, kinetic from dmso stock. On the procedure: The turbid solution was delivered to the filter plate, agitated for a specific time period and then filtered. The concentration of dissolved compound in the filtrate was determined by uv spectroscopy and referred to pre-constructed calibration curves for solubility determination.
(§1) Determination of aqueous solubility was carried out on Multiscreen® Solubility filter plates (Millipore-MSSLBPC10) from Millipore Corporation (MA, USA). The protocol (PC2445EN00, Millipore Corporation) was followed. Briefly, various concentrations of the test compound were prepared in Universal buffer (pH 7.4)/acetonitrile/DMSO. The UV absorbances of these solutions were obtained at a pre-determined wavelength and used to construct a calibration curve for the test compound. Next, a stock solution of the test compound in DMSO was prepared at a known concentration, diluted with Universal buffer (pH 7.4), dispensed into wells in the Multiscreen Solubility filter plate, and agitated for a period of time. The suspension is then filtered, the filtrate collected and diluted with acetonitrile to give the same solvent composition used to prepare the calibration solutions. The absorbance of the diluted filtrate was then read at the predetermined wavelength and the concentration of the filtrate (taken here to be equivalent to the solubility of the test compound) was determined from the calibration curve.
as §1, with “24 hours at room temperature (25 deg C.). […]” for “a period of time.”, “was” for “is then”, “was” for “was then”, “(equivalent” for “(taken here to be equivalent”, “curve. […] LCMS determinations were made on an Agilent 1200 Series HPLC linked to a AB Sciex Instruments 3200 Q TRAP LC/MS/MS. Separations were carried out on a Phenomenex Luna column [3u, C18(2), 100A, 5×4.6 mm]. […] Quantification was based on the ratio of peak areas of the daughter ion and the mother ion (M+H), normalized against the same ratio obtained for the internal standard. The solubility determinations were carried out in triplicates or more from two different stock solutions.” for “curve.”

Data set [2] concerns the target T1, Isoprenylcysteine carboxyl methyltransferase (Icmt) (Homo sapiens, UniProt O60725).
T1 construct: made in house; host or cells: Sf9 (Spodoptera frugiperda) insect cells; membrane preparation provided by Prof PJ Casey (Duke University / Duke-NUS)
Nature of the data set: Icmt inhibition, scintillation proximity assay with BFC and [3H]SAM. It is filed as biochemical. How it is done:
Isoprenylcysteine carboxyl methyltransferase (Icmt) was provided by Prof PJ Casey of Duke University, NC. S-Adenosylmethionine (SAM), magnesium chloride Hexahydrate (MgCl2), tartrazine, 4-(2-hydroxyethyl)-1-piperazineethanesulfonic acid (HEPES), dimethyl sulfoxide (DMSO) and dithiotreitol (DTT) were purchased from Sigma (Mo, USA). [^3H] S-Adenosylmethionine, [^3H] Biotin and Streptavidin PVT SPA Beads were purchased from PerkinElmer (Waltham, Mass.). Assays were performed in black small volume 384 well microtitre plates from PerkinElmer.
Stocks of Icmt membrane protein (30 μg/μL) stored at −80° C. were thawed at 37° C. and placed on ice. The Icmt membrane protein was diluted in assay buffer (70 mM HEPES, 100 mM NaCl, 5 mM Mg Cl2 and 3 mM DTT, pH 7.5) to a 0.03 μg/μL working concentration and added to the wells of a microtitre plate (5 μl/well). To each wells 20 μl of the reaction buffer was added. The reaction was initiated with the addition of 5 μL of substrate solution containing BFC (6 μM), SAM (3 μM) and 30 μCi/mL [^3H] SAM (all of these reagents were stored at −20° C., SAM reagents thawed on ice, BFC thawed at RT). The plate was incubated at 37° C. for 30 minutes. The reaction was stopped with the addition of 15 μL of stop solution containing SAM (150 μM) and Streptavidin SPA beads (20 mg/mL). Following overnight incubation at ambient temperature radioactivity was counted on a Microbeta Trilux™ (Perkin Elmer, Turku, Finland).
Sf9 (Spodoptera frugiperda ovarian) membranes containing recombinant Icmt were provided by Prof PJ Casey (Duke University, NC and Duke-NUS Graduate Medical School). S-Adenosylmethionine (SAM), magnesium chloride hexahydrate, tartrazine, 4-(2-hydroxyethyl)-1-piperazineethanesulfonic acid (HEPES) and dithiotreitol (DTT) were purchased from Sigma (Mo, USA). [^3H] S-Adenosylmethionine, [^3H] biotin and streptavidin PVT SPA Beads were purchased from PerkinElmer (Waltham, Mass.). Biotinylated farnesylcysteine was synthesized as described in an earlier report. Assays were performed in black 384-well microtitre plates from PerkinElmer.
A vial of Icmt membrane protein (30 μg/μL) stored at −80° C. was thawed at 37° C. and placed on ice. The protein was diluted in assay buffer (70 mM HEPES, 100 mM NaCl, 5 mM MgCl2, 3 mM DTT, pH 7.5) to 0.03 μg/μL and aliquots were added to each well (5 μL/well), followed by 20 μL of the assay buffer. The reaction was initiated by adding 5 μL of a solution containing biotinylated BFC (6 μM), SAM (3 μM) and 30 μCi/mL [^3H] SAM. These reagents were stored at −20° C. and thawed on ice (SAM, [^3H] SAM) or at room temperature (BFC). The plate was incubated at 37° C. for 30 minutes after which the reaction was quenched by adding 15 μL of a solution comprising SAM (150 μM) and streptavidin SPA beads (20 mg/mL). After overnight incubation at ambient temperature, radioactivity was counted (Microbeta Trilux™, Perkin Elmer, Turku, Finland). The degree of inhibition was assessed from the radioactivity obtained in presence of test compound compared to that obtained from the control sample […]. Two independent determinations were made for each test compound.

Data set [3] has as its system MDA-MB-231 human breast cells. Description: Antiproliferative activity / cell viability (MTS, 72 h). Conditions: Homo sapiens.
Protocol: (§4) The relative number of the live cells was determined using the CellTiter® 96 AQueous One Solution Cell Proliferation Assay (Promega). Determinations were made in duplicates or triplicates.
Human breast cancer MDA-MB231, liver cancer HepG2 and lung fibroblast cells were purchased from ATCC (Rockville, Md.). MDA-MB231 cells and IMR-90 cells were grown in DMEM (Sigma Aldrich, Singapore) and EMEM (Sigma Aldrich, Singapore) respectively at 37° C., 5% CO2. DMEM was supplemented with 10% fetal bovine serum (Invitrogen, heat treated at 65 deg C., 30 min), 50 units/L penicillin-G and 50 μg/mL streptomycin. EMEM was supplemented with 10% fetal bovine serum (heat treated as above), 100 mg/L penicillin-G and 100 μg/mL streptomycin.
Cell viability was assessed using CellTitre 96® Aqueous One Solution (Promega, Madison, Wis.) containing the tetrazolium salt 3-(4,5-dimethylthiazol-2-yl)-5-(3-carboxymethoxyphenyl)-2-(4-sulfophenyl)-2H-tetrazolium (MTS). […] Final concentration of DMSO per well was maintained at 0.5% v/v. […] Cell viability was determined from the expression:
The plot was constrained to ≧0 and ≦100%. At least 3 independent determinations of IC50 were made using two different stock solutions of test compound.
In data set [4] the test system is PC3 Prostrate cancer cells. The data set is described as above. It is filed as cell-based, human. Conditions: Homo sapiens.
Protocol: as §4
Data set [5] deals with Human lung fibroblast IMR90 cells. Description: Cell viability on non-malignant cells (MTS, 72 h). It is filed as cell-based. How it is done: (§2) Cell viability was determined from the expression:
(§3) The plot was constrained to ≧0 and ≦100%.
Human lung fibroblast IMR90 cells were purchased from ATCC (Rockville, Md.) and grown in Eagle's Minimal Essential Media (EMEM, Sigma Aldrich, Singapore) at 37° C., 5% CO2. […] Seeding density was maintained at 4000 cells per well.

Data set [6] can be described thus: Aggregation tendency by dynamic light scattering (DLS). It is filed as physicochemical. Conditions: for DLS count rate (kcps): 1% DMSO, potassium phosphate buffer 5 mM pH 7.4. On the procedure:
Stock solutions (10 mM) of test compounds prepared in DMSO, diluted to 1 mM with DMSO and then serially diluted with potassium phosphate buffer (5 mM, pH 7.4, prefiltered before use) to give final concentrations of 1 μM and 10 μM. Final concentration of DMSO was 1% v/v. Measurements were carried out on the Malvern Instrument Zetasizer Nano ZS system equipped with a 4 mW He—Ne laser at 633 nm and detector angle of 90°. Three or more determinations of derived count rates (kilocounts per second, kcps) were obtained from each concentration of test compound, using two separately prepared stock solutions. Data collection was carried out using the software supplied with the instrument. Results are represented as mean±standard deviation. The positive control was benzyl benzoate (250 μM) which gave a count rate of 1180 kcps (±35). The vehicle (phosphate buffer, 1% DMSO) gave a reading of 14.9±0.4.

Data set [7] deals with Human hepatocellular carcinoma HepG2 cells. Nature of the data set: Cell viability (MTS, 72 h). In kind it is cell-based. Conditions: HepG2, Table 6, mean (SD), read-out: IC50 (μM) HepG2. How it is done:
as §2, §3
Human hepatocellular carcinoma HepG2 and human pancreatic cancer MIA PACA II cells were obtained from ATCC (Rockville, Md.). They were grown in DMEM (high glucose, Invitrogen) supplemented with 10% FBS, 50 μg/mL penicillin and 50 μg/mL streptomycin, 37° C., 5% CO2 until they reached 80-90% confluency, after which they were subcultured. Passage numbers were kept within 7-14 passages for both cell types.

Data set [8] in a line: Parallel Artificial Membrane Permeability Assay (PAMPA). Conditions: 500 uM stock, similar conditions. How it is done:
Briefly, determinations were carried out on MultiScreen-IP PAMPA assay (donor) plates (MAIPNTR10) and MultiScreen Receiver Plates (MATRNPS50) from Millipore Corporation (USA) with 1% lecithin (L-α-phosphatidylcholine from lyophilized powder of egg yolk, Sigma Aldrich, USA) in dodecane (ReagentPlus®, Sigma Aldrich, USA) as lipid barrier. 5 μL of 1% lecithin in dodecane was dispensed into the wells of the donor plates. […] The mobile phase was Milli-Q water (0.1% formic acid) and acetonitrile (0.1% formic acid), run on gradient.
Pe was obtained from Equation 1:
[formula] Where VA and VD are the volumes of acceptor (cm^3) and donor (cm^3) wells respectively, A is the area of the surface area of the membrane (0.24 cm^2), t is the permeation time (s); S is the fraction of sample remaining in the donor and acceptor wells after permeation time and is determined from Equation 2, CA and CD are the concentrations (μM) of test/reference compound in acceptor and donor wells respectively.
The Pe of each compound was obtained from at least 3 separate experiments using no less than 2 different stock solutions. For each independent determination, triplicates (3 wells) were run for each compound.
(In PAMPA a lipid-coated filter parts donor from acceptor wells.)

[9] abbreviates: Table 3, mean of two or more determinations (SD), read-out: IC50 Icmt.
The mark [10] stands for this setting: MDA-MB-231, 72 h, read-out: IC50 MDA-MB-231 (μM).
Where [11] appears, read: MDA-MB-231, 72 h, read-out: IC50MDA-MB-231 (μM).
[12] abbreviates: PC-3M, Table 3, 72 h, mean (SD), read-out: IC50 PC3.
[13] abbreviates: IMR-90, further testing, 72 h, mean (SD), read-out: IC50 IMR90.
Where [14] appears, read: MDA-MB-231, read-out: IC50 (μM) MDA MB 231.

T1 sequence (O60725 whole entry, species assumed): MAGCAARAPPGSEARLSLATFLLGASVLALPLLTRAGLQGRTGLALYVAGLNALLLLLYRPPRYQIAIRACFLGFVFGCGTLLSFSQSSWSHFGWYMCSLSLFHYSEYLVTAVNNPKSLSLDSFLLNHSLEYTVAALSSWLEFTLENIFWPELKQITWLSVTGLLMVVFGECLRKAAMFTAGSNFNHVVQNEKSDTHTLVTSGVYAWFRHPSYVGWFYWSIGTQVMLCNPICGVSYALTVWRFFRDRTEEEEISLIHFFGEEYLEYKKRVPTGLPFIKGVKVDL

In data set [1], `CCCCCCCCn1cc(CN(CC)CC)c2cc(-c3cnc(N(C)C)nc3)ccc21` displayed a solubility at 24 h of 24.9 µM (≈ 10.8 µg/mL) and a solubility at 3 h of 25.3 µM (≈ 11 µg/mL).

On to `CCCCCCCCn1cc(CN(CC)CC)c2cc(-c3cccnc3)ccc21` [Compound 8-7, Diethyl-(1-octyl-5-pyridin-3-yl-1H-indol-3ylmethyl)-amine], for which the IC50 in data set [2] stood at 1.8 µM; in data set [2] (setting [9]), 1.75 µM; in data set [3] (setting [10]), 6.01 µM; in data set [3] (setting [11]) it was 5.5 µM; in data set [4] (setting [12]) it was 5.84 µM; in data set [5] (setting [13]) it was 5.52 µM. Moreover, the “DLS count rate (kcps)” value in data set [6] (1 μM) was 16.8 kcps; in data set [6] (10 μM), 16.5 kcps. Besides, the “Aqueous Solubility (pH 7.4) 24 hours” value in data set [1] (24 h, pH 7.4) is given as 244.8 (9.7) μM. Moreover, the “Solubility (μM)” value in data set [1] (24 h, pH 7.4) is on record as 244.8 (9.7) μM. The molecule further yielded a solubility at 3 h in data set [1] of 250 µM (≈ 97.8 µg/mL).

As for `CCCCCCCCn1cc(CN(CC)CC)c2cc(-c3ccc(S(C)(=O)=O)cc3)ccc21` [Compound 8-10, Diethyl-[5(4-methanesulfonyl-phenyl)-1-octyl-1H-indol-3ylmethyl]-amine], the IC50 in data set [2] (setting [9]) was 1.72 µM; in data set [3] (setting [11]) it was 5.56 µM; in data set [3] (setting [14]), 5.56 µM; in data set [7] it was 3.44 µM; in data set [4] (setting [12]), 4.74 µM; in data set [4] (Table 6, from earlier table, read-out: IC50 (μM) PC3), 4.74 µM. Further, the IC50 in data set [5] (IMR-90, Table 6, mean (SD), read-out: IC50 (μM) IMR90) came out at 5.52 µM.

As for `CCCCCCCCn1cc(CN(CC)CC)c2cc(-c3cncnc3)ccc21` [Compound 8-15, Diethyl-(1-octyl-5-pyrimidin-5-yl-1H-indol-3ylmethyl)-amine], the IC50 came out at 1.58 µM in data set [2] (setting [9]); 1.6 µM in data set [2] (further testing, mean (SD), read-out: IC50 Icmt); 13.2 µM in data set [3] (setting [10]); 9 µM in data set [3] (setting [11]); 8.32 µM in data set [4] (setting [12]); 9.84 µM in data set [5] (setting [13]). The “DLS count rate (kcps)” value in data set [6] (1 μM) was found to be 20.4 kcps; in data set [6] (10 μM), 28.9 kcps. The solubility at 24 h in data set [1] came out at 272 µM (≈ 107 µg/mL). Besides, the “Solubility (μM)” value in data set [1] (24 h, pH 7.4) is recorded as 271.56 (6.63) μM. This molecule also had a solubility at 3 h in data set [1] of 266 µM (≈ 105 µg/mL).

Consider `CCCCCCCCn1cc(CN(CC)CC)c2cc(-c3ccc(S(=O)(=O)NC)cc3)ccc21` [Compound 8-24, 4-(3-Diethylaminomethyl-1-octyl-1H-indol-5-yl)-N-methyl-benzensulfonamide], for which the IC50 in data set [2] (setting [9]) is 1.71 µM; in data set [3] (setting [11]), 8.52 µM; in data set [3] (setting [14]), 8.7 µM; in data set [7] it was 4.76 µM.

In turn, `O=C(OCc1ccccc1)c1ccccc1` [benzyl benzoate, reference compound] registered a DLS count rate in data set [6] (positive control, 250 μM) of 1180 kcps.

As to `Cn1c(=O)c2c(ncn2C)n(C)c1=O` [caffeine, reference compound], in data set [8], the “Pe sequence of standard compounds” value is listed as “verapamil>quinidine>caffeine”.

In the case of `C=C[C@H]1C[N@@]2CC[C@H]1C[C@@H]2[C@@H](O)c1ccnc2ccc(OC)cc12` [quinidine, reference compound], the “Pe sequence of standard compounds” value in data set [8] was “verapamil>quinidine>caffeine”.

In general, solubility refers to the concentration that dissolves in the medium under given conditions. A lower solubility goes with little dissolved substance.
